Data from patent US7282347B2, “Method for extracting quantitative information relating to interactions between cellular components” (Fisher Bioimage APS, priority 2000, dated 2007).
“Also recorded” adds a separate entry of the source. Read-outs that look alike come from different tables or passages of the source. Each block holds one molecule with its values, some of them ahead of it.

Legend:
[1] = biological target: T1, Cys1-hGrb2 anchor probe and EGFP-Sos-Cterm detectable probe (Homo sapiens, UniProt P62993); assay: redistribution trap: CHO cells expressing Cys1-hGrb2 anchor probe and EGFP-Sos-Cterm detectable probe; type: cell-based; conditions: control cells with EGFP-Sos-Cterm alone, PMA
T1 construct: the 90 N-terminal amino acids of human PKCgamma (the Cys1 domain); expressed in transfected cells; host or cells: CHO
Method: (§1) This example describes the creation of another cell line suitable for screening compounds against the interaction between Grb2 and the C-terminal sequence of Sos (amino acids 1067 to 1332 of Sos). This is the same interaction pair described in Example 6, except that the anchor probe is based upon the Cys1 domain of protein kinase C isoform gamma, and therefore locates in unstimulated cells throughout the cytoplasm and nucleus. When these cells are treated with 100 nM PMA the anchor probe redistributes to the plasma membrane, and if an interaction occurs between anchor and detectable probes, the GFP fluorescence will also be seen to redistribute to the plasma membrane. […] Treatment with PMA is used to confirm that an interaction between anchor and detectable probes occurs in this system, since redistribution of fluorescence to the plasma membrane can only occur if interaction of the two probes has first taken place. This can be checked in CHO cells transfected with EGFP-Sos-Cterm alone, where PMA has no effect on the distribution of fluorescence.
(§2) CHO cells are stably co-transfected with the anchor probe Cys1-hGrb2 and the GFP-labelled detectable probe EGFP-Sos-Cterm as described in Example 2 and Example 6. […] The majority of cells in before PMA treatment have a rather general cytoplasmic and nuclear distribution of fluorescence. […]

[2] = biological target: T2, Cys1-hGrb2 anchor probe and EGFP-Sos-Cterm detectable probe (Homo sapiens, UniProt P05129+P62993); assay: as above; type: cell-based; conditions: 100 nM PMA, 5 minutes
T2 construct: the 90 N-terminal amino acids of human PKCgamma (the Cys1 domain); expressed in transfected cells; host or cells: CHO
Method: as §1, §2

[3] = biological target: T3, Cys1 domain of PKCgamma (Cys1-EGFP) (Homo sapiens, UniProt P05129); assay: redistribution of Cys1-EGFP to the plasma membrane in CHO cells; type: cell-based; conditions: 100 nM PMA, 5 minutes
T3 construct: the 90 N-terminal amino acids of human PKCgamma (the Cys1 domain); expressed in transfected cells; host or cells: CHO
Method: Time-lapse images of CHO cells expressing Cys1-EGFP, the fusion of EGFP to the C-terminal of the cys1 domain from human protein kinase C isoform gamma, before (a) and after 5 minutes treatment with 100 nM PMA.

[4] = biological target: T4, HSPDE4A4-SosA anchor probe and hGrb2-EGFP detectable probe (Homo sapiens, UniProt P27815+Q07890); assay: redistribution trap: CHO cells co-transfected with HSPDE4A4-SosA anchor probe and hGrb2-EGFP detectable probe; type: cell-based; conditions: 10 μM RP73401 for 75 minutes in presence of 10 micromolar rolipram
T4 construct: expressed in transfected cells; host or cells: CHO
Description: Sos is a guanine nucleotide exchange factor responsible for activation Ras-like GTPases, Grb2 an adaptor component responsible for recuiting Sos to the activated receptor. In this example the anchor probe is based on HSPDE4A4. CHO cells are stably co-transfected with anchor probe HSPDE4A4-SosA and “detectable” probe hGrb2-EGFP as described in Example 2 and Example 3. The anchor probe is selected for with zeocin, and the detectable probe with neomycin (G418). […] The transfected cells are a mixed non-clonal population.
The transfected cells are a mixed non-clonal population.

PDE4A4 = PDE4A4 (Homo sapiens, UniProt P27815); assay: formation of dense aggregates (spots) of PDE4A4 in transfected CHO cells; conditions: read-out: EC50 for formation of dense PDE4A4 aggregates (spots) in the cytoplasm
PDE4A4, sequence (P27815 whole entry): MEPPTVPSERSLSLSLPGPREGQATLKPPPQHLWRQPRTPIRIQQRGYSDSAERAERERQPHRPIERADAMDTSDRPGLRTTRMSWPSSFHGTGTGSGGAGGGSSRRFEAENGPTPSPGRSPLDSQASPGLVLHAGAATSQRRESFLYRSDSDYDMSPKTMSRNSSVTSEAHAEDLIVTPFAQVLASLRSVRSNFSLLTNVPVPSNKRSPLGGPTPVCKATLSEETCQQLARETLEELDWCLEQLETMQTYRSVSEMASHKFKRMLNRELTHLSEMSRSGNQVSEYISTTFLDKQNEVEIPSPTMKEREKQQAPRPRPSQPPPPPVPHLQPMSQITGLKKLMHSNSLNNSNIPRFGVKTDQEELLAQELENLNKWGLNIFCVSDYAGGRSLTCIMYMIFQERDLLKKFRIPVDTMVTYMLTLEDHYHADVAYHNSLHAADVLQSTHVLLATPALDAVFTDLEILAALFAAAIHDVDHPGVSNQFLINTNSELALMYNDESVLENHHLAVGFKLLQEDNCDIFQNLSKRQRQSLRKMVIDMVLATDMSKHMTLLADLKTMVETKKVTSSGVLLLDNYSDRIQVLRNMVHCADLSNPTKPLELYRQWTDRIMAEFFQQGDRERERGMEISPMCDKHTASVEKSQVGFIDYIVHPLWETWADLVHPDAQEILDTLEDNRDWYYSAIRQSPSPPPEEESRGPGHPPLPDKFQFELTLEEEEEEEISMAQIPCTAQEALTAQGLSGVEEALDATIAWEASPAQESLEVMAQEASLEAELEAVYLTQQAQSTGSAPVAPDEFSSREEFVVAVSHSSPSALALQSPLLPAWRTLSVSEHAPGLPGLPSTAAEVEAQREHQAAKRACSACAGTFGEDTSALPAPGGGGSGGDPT
Method: The amount of fluorescent spots and other accumulations of a transfected probe in a population of cells can be imaged and quantified in an automated fashion to yield a measure of mean number of spots per cell. For this purpose cells are cultured to near 80% to 90% confluence in coverglass chambers or plastic 96-well plates, given the relevant treatment and allowed to respond. At the end of the response period, cells are chemically fixed in 4% formaldehyde buffer (Lillies fixative buffer, pH7.4: Bie and Berntsen A/S, Denmark) for 30 minutes to 2 hours, and then washed three times in phosphate buffered saline (PBS, Life Technologies, Denmark). An alternative simultaneous fixation+permeabilisation method, useful to remove non-localised (i.e. mobile) GFP probe from the cytoplasm, involves a single fixation process incorporating 0.4% to 2% formaldehyde buffer (10% to 50% strength Lillies fixative) plus 0.2% to 1% Triton X-100. The actual concentrations used need to be optimised for the cell type being used; for CHO cells 2% formaldehyde+1% Triton X-100 gives excellent results. The combined fixative+detergent are applied to the cells for 10 to 20 minutes at room temperature. Cells are then washed three times with phosphate buffered saline. […] Fluorescence illumination comes from a 100 W HBO lamp. […]

PKAcat-GFP = assay: forskolin induced PKAcat-GFP translocation quantified by extraction procedure, FLIPR; type: cell-based; conditions: Homo sapiens
Method: Upon increase in cellular cAMP (e.g. by stimulation of adenylate cyclase activity by forskolin) PKAcat dissociates from its regulatory subunits and spots “dissolves” into the cytosol. The total GFP intensity measured after removing cytosolic PKAcat-GFP through the extraction procedure is indicative of the level of non-activated, non-dissociated PKAcat.
In this example the extraction procedure is used to quantify a forskolin dose response in a PKAcat-GFP assay.
Cells are treated with forskolin in various conc. for 15 min. (remove spots). Cells are extracted (Formalin 0.2%/Triton-x 0.2%). Signal is read in FLIPR.
Dose response on the effect of forskolin to stimulate PKA translocation.

untransfected CHO cells = assay: cellular cAMP content (kit RPA538) in untransfected CHO cells; type: cell-based, Chinese hamster
Method: (§3) After the incubation period, cAMP content is measured using a commercial kit from Amersham-Pharmacia Biotech, kit # RPA538, according to the manufacturers instructions.
(§4) The amount of cAMP/well was calculated using regression analysis from a cAMP standrad curve, as recommended by the manufacturers of the assay kit.
(§5) After the incubation period, cAMP content is measured using a commercial kit from Amersham-Pharnacia Biotech, kit # RPA538, according to the manufacturers instructions.
(§6) CHO cells stably expressing HSPDE4A4B-GFP (see Example 2), and untransfected CHO cells are seeded into individual wells of a 96-well microtiter plate at a density of 1.2×10^5 cells/well, and cultured for 16 to 18 hours in HAM F-12 medium with glutamax, 100 μg penicillin-streptomycin mixture ml^−1 and 10% FBS. After 16 to 18 hours incubation, cells are treated for 60 minutes with various concentrations of forskolin. After the treatment period, cAMP content is measured using a commercial kit from Amersham-Pharmacia Biotech, kit # RPA538, according to the manufacturers instructions.

[5] = tested on: CHO cells stably expressing HSPDE4A4B-GFP; assay: cellular cAMP content (kit RPA538) in CHO cells stably expressing HSPDE4A4B-GFP; type: cell-based, Chinese hamster; conditions: rolipram 0.03 μM to 3 μM, 16 to 18 hours
Method: as §3, §4, §5
as §6, with “After 16 to 18 hours incubation, cells are treated for 60 minutes with various concentrations of forskolin.” left out

SMILES: CCCCCCCCCCCCCC(=O)O[C@@H]1[C@@H](C)[C@@]2(O)[C@@H](C=C(CO)C[C@]3(O)C(=O)C(C)=C[C@@H]23)[C@@H]2C(C)(C)[C@]12OC(C)=O [PMA, phorbol-12-myristate-13-acetate]
distribution of fluorescence in CHO cells transfected with EGFP-Sos-Cterm alone [1]: no effect
redistribution of EGFP-Sos-Cterm fluorescence [2]: measurable shift in fluorescence to the plasma membrane
redistribution of Cys1-EGFP [3]: redistributes from the cytoplasm and nucleus to the plasma membrane

SMILES: COc1ccc(C(=O)Nc2c(Cl)cncc2Cl)cc1OC1CCCC1 [RP73401, Piclamilast]
effect on rolipram-induced GFP-bright spots [4]: spots disappear; also recorded: dissolves rolipram-induced spots

EC50 (PDE4A4): 20 nM
SMILES: O=c1c2cccnc2n(-c2cccc([N+](=O)[O-])c2)c(=O)n1Cc1ccncc1 [RS25344]

EC50 (PKAcat-GFP; 0.25 h, forskolin 15 min, extraction Formalin 0.2%/Triton-x 0.2%, FLIPR, read-out: ED50 of forskolin dose response in PKAcat-GFP assay): ~3000 nM
EC50 (PKAcat-GFP; FIG. 18 dose response, read-out: calculated EC50 for forskolin to stimulate PKA translocation): 3280 nM
SMILES: C=C[C@@]1(C)CC(=O)[C@]2(O)[C@@]3(C)[C@@H](O)CCC(C)(C)[C@@H]3[C@H](O)[C@H](OC(C)=O)[C@@]2(C)O1 [forskolin]

SMILES: COc1ccc(C2CNC(=O)C2)cc1OC1CCCC1 (stereo not shown) [rolipram]
cellular cAMP, rolipram 10 μM (untransfected CHO cells; 10 μM rolipram, probably not significant): slight rise
cellular cAMP concentration, rolipram treatment (untransfected CHO cells; rolipram 0.03 μM to 3 μM, 16 to 18 hours): no appreciable increase
cellular cAMP concentration, rolipram treatment [5]: no appreciable increase
